Measurements from a melting point compilation (Tetko et al.; mined from patent text by program, amines drawn as free bases though some values may be those of a salt).

melting point | Structure (SMILES)
> 250 °C | O=C(O)c1nc2c(=O)[nH]c3cc(C(F)(F)F)ccc3n2c1CP(=O)(O)O
71 to 79 °C | CC(OC(=O)C1(C(=O)O)Oc2ccc(C[C@@H](C)NC[C@H](O)c3cccc(Cl)c3)cc2O1)c1ccccc1 (some centres not stated)
251 to 252 °C | COc1ccc(Nc2cc(=O)n(-c3ccc(Cl)cc3)nc2-c2nc[nH]n2)cc1
50 to 54 °C | N#CC=C(N)c1cccs1
90.5 to 93 °C | CN(C)C(=O)N1CCSC1c1ccccc1OCCN1CCN(c2cccc(F)c2)CC1 (configuration not stated)
236 °C | O=C(N[C@H]1CC[C@H](CCN2CCN(c3nccc4c3OCC4)CC2)CC1)c1ccc(F)cc1
67 to 71 °C | CC(C)C[C@H](NC(=O)[C@@H](S)Cc1ccccc1)C(=O)O
83 to 87 °C | O=c1c(Cl)c(OCc2ccc(Cl)cc2)cnn1CCCBr
152 to 154 °C | CC(C)(C)OC(=O)NCC(NC(=O)OC(C)(C)C)C(=O)NCCNC(=O)OCc1ccccc1 (configuration not stated)
106 to 108 °C | Cc1ncnn1-c1ccc(N)cc1F
192 to 194 °C | COc1cc(OC)c(-c2cccs2)cc1C#CC(=O)c1cc(OC)c(OCC(=O)O)c(OC)c1
196 °C | CCCc1nc(C)n2c(=O)[nH]nc2c1Cc1ccc(-c2ccccc2C#N)cc1
225 to 229 °C | CN(Cc1ccc(NC(=O)C2=Cc3cc(OCc4cccnc4)ccc3S(=O)(=O)CC2)cc1)C1CCOCC1
130 to 131 °C | CC(=O)c1ccc(/C=C(\C)c2ccc3c(c2)C(C)(C)CC3(C)C)cc1
118 to 120 °C | COc1cc(C(=O)c2ccccc2F)ccc1OCc1ccccc1
209 °C | COc1cc(N)c(Cl)cc1C(=O)N[C@H]1CCN(CCNC(=O)c2ccc(F)cc2)C[C@H]1OC (relative stereo)
126 to 127 °C | CCOC(=O)C1CCc2c(n(C)c3ccc(Cl)cc23)C1 (configuration not stated)
145 °C | O=C(O)c1ccc(CC2(C(=O)O)CCCN2C(=O)Nc2cc(Cl)cc(Cl)c2)cc1 (configuration not stated)
161 to 163 °C | CCCCCCOc1cccc(N2CC(=O)NC(=O)N2)c1
128 to 130 °C | O=C(NC1CCN(C2CCCCC2)C1)c1cccc(Br)c1 (configuration not stated)
210 to 213 °C | O=C(O)Cc1ccc(Br)cc1C(=O)O
131 to 133 °C | Cc1ccc(/C=C/c2c(C(C)C)nc(C(C)C)c(CO)c2-c2ccc(F)cc2)cc1

melting point | Structure (SMILES)
218 to 219 °C | CC(C)c1cccc(CCCO)c1NC(=O)CC1c2ccccc2Oc2ccccc21
236 to 237 °C | CCc1cnc2c(NC(=O)c3c(Cl)cccc3Cl)cccc2c1CCC(=O)O
70 to 71 °C | CCOC(=O)C(c1ccc(N)cc1)N(C)C(C)C (configuration not stated)
109 to 112 °C | CCCCN1C(=O)CC(c2cc(C(C)(C)C)c(O)c(C(C)(C)C)c2)C1=O (configuration not stated)
108 °C | COC(=O)c1ccn2c1C(C(=O)OC)CCC2 (configuration not stated)
140 to 145 °C | O=C(c1ccccc1)N1CCc2[nH]c3ccc(-c4ccccc4)cc3c2CC1
62 to 63 °C | CCCCCCCCCCOC(=O)c1nc(-c2ccc(Cl)cc2)c(F)c(N)c1Cl
170 to 171 °C | CC1(CC(=O)O)OCCc2c1[nH]c1ccc(O)cc21 (configuration not stated)
198 to 206 °C | Cc1ccc2c(c1)N(CC(=O)c1cccs1)C(=O)C(NC(=O)Nc1cccc(C(=O)O)c1)CN2C(=O)C(C)(C)C (configuration not stated)
89 to 90 °C | COc1ccc(CCN(C)CCCNc2c(Cl)cn[nH]c2=O)cc1OC
102 to 104 °C | CC(=O)Nc1cccc(C2CCNCC2)c1
172 to 174 °C | COc1cccc(CCNc2nc(N)n3nc(-c4ccco4)nc3n2)c1
127 to 130 °C | O=C(O)CCc1ccc(CCNS(=O)(=O)c2ccc(Cl)cc2)s1
197 to 200 °C | O=C1c2ccccc2C(O)(c2ccc(Cl)cc2)N1Cc1ccc([N+](=O)[O-])cc1 (configuration not stated)
29 to 31 °C | O=C(OCCCCCCCCCCCCBr)C1CC1
201 to 204 °C | COCCOc1nc(Nc2cccc(NS(C)(=O)=O)c2)nc2[nH]cnc12
90 °C | CNc1cc(SC2CCN(C)CC2)ccc1[N+](=O)[O-]
104 to 106 °C | C=CCc1ccc(OCCC(C)C)c2c(=O)cc(C(=O)OCC)oc12
55 to 65 °C | Cc1cc2c(s1)Nc1ccccc1N=C2N1CCN(C)[C@@H](COCc2ccccc2)C1
160 to 162 °C | Oc1ncc(Br)cc1C(F)(F)F
109 to 110 °C | CCn1nnnc1SCc1c(S(C)(=O)=O)ccc(C(=O)OC)c1Cl
174 to 175 °C | COc1nc2ccccc2cc1NC(=O)N1CCN(c2cccc(C)c2C)CC1

melting point | Structure (SMILES)
224 to 225 °C | O=C(c1ccc(Cl)cc1)N(c1ccccc1)c1ccc(O)cc1
100 to 101 °C | COC(=O)c1ccccc1C(=O)NC(C)(C)C#N
220 to 221 °C | O=C(O)c1cn(C2CC2)c2c(F)c(N3CCC(n4cncn4)C3)c(F)cc2c1=O (configuration not stated)
25 to 28 °C | CC(C)=CCCC(C)=CCCC(C)=CCCC1(C)CCc2c(C)c(O)c(C)c(C)c2O1 (configuration not stated)
140 °C | COc1ccc2ncc3c(=O)n(-c4ccccc4)oc3c2c1
193 to 195 °C | CCCCc1nc2c(N)nc3ccccc3c2n1CCCNC(=O)N1CCOCC1
115 to 116 °C | CN1NC(c2ccccc2Cl)=NN=C1c1ccccc1Cl
123 to 124 °C | COCOc1ccc(OCc2ccc(OCc3nc(-c4ccccc4)oc3C)cc2)c(CC#N)c1
165 to 167 °C | CNC(=O)c1ccccc1Nc1nc(Nc2ccc(OC)c3c2N(C)C(=O)CCC3)ncc1Cl
272 to 278 °C | Nc1nc(-n2cc(C(=O)O)c(=O)c3cc(F)c(F)c(Br)c32)c(F)cc1F
196 to 197 °C | CCOC(=O)C(=O)Cc1ccnc2c1C(=O)c1ccccc1-2
196 to 197 °C | CC(=O)NCCNc1nc(-c2ccccc2)nc2[nH]c(COc3ccccc3)cc12
259 to 260 °C | Cc1nccc2[nH]c(=O)c(-c3noc(C4CC4)n3)cc12
114 to 115 °C | O=[N+]([O-])c1cccc(C2=NOCCS2)c1
48 °C | CCCCCCCCCCCCCCCCOC(=O)NCCN1CCCCC1
103 to 105 °C | CCOC(=O)N=P(c1ccccc1)(c1ccccc1)c1ccccc1CN(C)C
109 to 111 °C | COCCOc1cc(NC(=O)OC(C)(C)C)c([N+](=O)[O-])cc1I
119 to 120 °C | COCCOc1cc(N)c(Cl)cc1C(=O)O
162 to 165 °C | O=[N+]([O-])c1ccc(Cn2c(CO)nc3ccccc32)cc1
175 to 176 °C | O=C(O)c1cccc(-c2ccc3c(c2)N(Cc2ccc(Cl)cc2Cl)CC3)c1
181 to 182 °C | Oc1ccc(-n2c(-c3ccccc3)cc3c2CCCC3)cc1
197 to 202 °C | Cc1c(C)c2c(c(C)c1OC(=O)CCC(=O)O)CCC(C)(COc1ccc(CC3SC(=O)NC3=O)cc1)O2 (configuration not stated)

Structure (SMILES) | melting point
ClCc1cn2c(n1)CN=C(c1ccccn1)c1cc(Cl)ccc1-2 | 161 °C
CC(C)NC1CCCCC1O (configuration not stated) | 54 to 55 °C
COC(=O)c1nc2n(c1C)-c1ccc(Cl)cc1C(c1ccccc1F)=NC2 | 137 to 138 °C
Cc1cc(C(=O)NCO)ncc1C(c1c(F)ccc(F)c1F)S(=O)(=O)CCC(F)(F)C(F)(F)F (configuration not stated) | 126 to 128 °C
COc1ccc(-n2cc(C3(O)CN4CCC3CC4)nn2)cc1 (configuration not stated) | 174 °C
CC1(CO)CCN(c2ccc(C#N)c3ccccc23)CC1 | 136 to 137 °C
